Measured values reported in PubChem BioAssay AID248 (DTP/NCI, 2004).
Several values for one entry are separate records, joined by “and”; a condition that tells them apart may be missing. Equal values may be shown once. Inconclusive results and toxic doses are left out. Rule as the data show it: active = T/C of 150% or more; inactive = T/C below 125%.

Tested on: L1210 leukemia ip in BDF1 mice, survival T/C
Assay: NCI In Vivo Anticancer Drug Screen. Data for tumor model L1210 Leukemia (intraperitoneal) in B6D2F1 (BDF1) mice
Conditions: endpoint: mean survival time, higher = longer survival
Summary of the method: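 Transplantable tumor model; survival measured in treated vs vehicle control mice. Value = treated/control.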

[1] = dose: 75.0 mg/kg/injection, schedule: Q01DX001 (ip), vehicle: saline
[2] = dose: 150.0 mg/kg/injection, schedule: Q01DX001 (ip), vehicle: saline
[3] = dose: 100.0 mg/kg/injection, schedule: Q01DX001 (ip), vehicle: carboxymethylcellulose (CMC)
[4] = dose: 200.0 mg/kg/injection, schedule: Q01DX001 (ip), vehicle: carboxymethylcellulose (CMC)
[5] = dose: 400.0 mg/kg/injection, schedule: Q01DX001 (ip), vehicle: carboxymethylcellulose (CMC)
[6] = dose: 100.0 mg/kg/injection, schedule: Q01DX009 (ip), vehicle: Klucel (hydroxypropylcellulose) (HPC)
[7] = dose: 100.0 mg/kg/injection, schedule: Q04DX003 (ip), vehicle: Klucel (hydroxypropylcellulose) (HPC)
[8] = dose: 200.0 mg/kg/injection, schedule: Q01DX009 (ip), vehicle: Klucel (hydroxypropylcellulose) (HPC)
[9] = dose: 200.0 mg/kg/injection, schedule: Q04DX003 (ip), vehicle: Klucel (hydroxypropylcellulose) (HPC)
[10] = dose: 400.0 mg/kg/injection, schedule: Q01DX009 (ip), vehicle: Klucel (hydroxypropylcellulose) (HPC)
[11] = dose: 400.0 mg/kg/injection, schedule: Q04DX003 (ip), vehicle: Klucel (hydroxypropylcellulose) (HPC)
[12] = dose: 100.0 mg/kg/injection, schedule: Q04DX003 (ip), vehicle: saline with Tween-80
[13] = dose: 200.0 mg/kg/injection, schedule: Q04DX003 (ip), vehicle: saline with Tween-80
[14] = dose: 400.0 mg/kg/injection, schedule: Q04DX003 (ip), vehicle: saline with Tween-80
[15] = dose: 100.0 mg/kg/injection, schedule: Q04DX003 (ip), vehicle: saline
[16] = dose: 200.0 mg/kg/injection, schedule: Q04DX003 (ip), vehicle: saline
[17] = dose: 400.0 mg/kg/injection, schedule: Q04DX003 (ip), vehicle: saline
[18] = dose: 100.0 mg/kg/injection, schedule: Q04DX002 (ip), vehicle: saline
[19] = dose: 200.0 mg/kg/injection, schedule: Q04DX002 (ip), vehicle: saline
[20] = dose: 100.0 mg/kg/injection, schedule: Q01DX009 (ip), vehicle: saline with Tween-80

Measured: T/C

CC/C=C/C1(C(C)C)C(=O)NC(=O)NC1=O
inactive: [1] 103 % of control | [2] 105 % of control

CC(C)CC(CC(C)C)=NO
inactive: [3] 104 % of control | [4] 101 % of control | [5] 103 % of control

CCC(C)(C)c1ccc(O)c(C(C)(C)CC)c1
inactive: [6] 96 % of control | [7] 100 % of control | [8] 96 % of control | [9] 89 % of control | [10] 96 % of control | [11] 87 % of control

COC(=O)CC(c1cccc2ccccc12)c1cccc2ccc3ccccc3c12 (stereo not given)
inactive: dose: 100.0 mg/kg/injection, schedule: Q04DX003 (ip), vehicle: DMSO 92 % of control | dose: 200.0 mg/kg/injection, schedule: Q04DX003 (ip), vehicle: DMSO 94 % of control | dose: 400.0 mg/kg/injection, schedule: Q04DX003 (ip), vehicle: DMSO 89 % of control

CCC(=O)Nc1cccc(OC(=O)N(C)C)c1
inactive: [12] 100 % of control | [13] 98 % of control | [14] 100 % of control

Nc1nc2c(c(=O)[nH]1)N1CN(c3ccc(C(=O)NC(CCC(=O)O)C(=O)O)cc3)CCC1CN2 (stereo not given)
inactive: dose: 1.0 mg/kg/injection, schedule: Q01DX009 (ip), vehicle: saline 94 % of control | dose: 2.0 mg/kg/injection, schedule: Q01DX009 (ip), vehicle: saline 100 % of control | dose: 4.0 mg/kg/injection, schedule: Q01DX009 (ip), vehicle: saline 89 % of control | dose: 4.0 mg/kg/injection, schedule: Q04DX003 (ip), vehicle: saline 94 % of control | dose: 8.0 mg/kg/injection, schedule: Q01DX009 (ip), vehicle: saline 100 % of control | dose: 8.0 mg/kg/injection, schedule: Q04DX003 (ip), vehicle: saline 109 % of control | dose: 16.0 mg/kg/injection, schedule: Q01DX009 (ip), vehicle: saline 94 % of control | dose: 16.0 mg/kg/injection, schedule: Q04DX003 (ip), vehicle: saline 87 % of control | dose: 32.0 mg/kg/injection, schedule: Q04DX003 (ip), vehicle: saline 101 % of control | dose: 64.0 mg/kg/injection, schedule: Q04DX003 (ip), vehicle: saline 95 % of control

O=C(Nc1ccc([N+](=O)[O-])cc1Cl)Oc1ccc(OCc2ccccc2)cc1
inactive: [7] 91 % of control | [9] 91 % of control | [11] 96 % of control

COc1ccc(/C(Cc2ccccc2)=N\N=C(N)N)cc1
inactive: dose: 15.0 mg/kg/injection, schedule: Q01DX Z (ip), vehicle: carboxymethylcellulose (CMC) 97 % of control | dose: 30.0 mg/kg/injection, schedule: Q01DX Z (ip), vehicle: carboxymethylcellulose (CMC) 97 % of control | dose: 60.0 mg/kg/injection, schedule: Q01DX Z (ip), vehicle: carboxymethylcellulose (CMC) 97 % of control | dose: 120.0 mg/kg/injection, schedule: Q01DX Z (ip), vehicle: carboxymethylcellulose (CMC) 101 % of control | dose: 240.0 mg/kg/injection, schedule: Q01DX Z (oral), vehicle: carboxymethylcellulose (CMC) 108 % of control | dose: 480.0 mg/kg/injection, schedule: Q01DX Z (oral), vehicle: carboxymethylcellulose (CMC) 104 % of control | dose: 960.0 mg/kg/injection, schedule: Q01DX Z (oral), vehicle: carboxymethylcellulose (CMC) 88 % of control

COC(=O)C1CCCC23CC(CC12)C(C)(C)C3Br (stereo not given)
inactive: [6] 94 % of control | [7] 97 % of control | [8] 97 % of control | [9] 90 % of control | [10] 90 % of control | [11] 97 % of control

C=CCc1cccc(CC=C)c1OCCN(CC)CC
inactive: dose: 25.0 mg/kg/injection, schedule: Q01DX009 (ip), vehicle: saline 98 % of control | dose: 50.0 mg/kg/injection, schedule: Q01DX009 (ip), vehicle: saline 105 % of control | dose: 100.0 mg/kg/injection, schedule: Q01DX009 (ip), vehicle: saline 95 % of control and 107 % of control

CCOS(=O)O
inactive: [15] 96 % of control | [16] 96 % of control | [17] 98 % of control

CNC(=O)C(C)NC(C)=O (stereo not given)
inactive: dose: 50.0 mg/kg/injection, schedule: Q04DX002 (ip), vehicle: saline 99 % of control | [18] 102 % of control | [19] 105 % of control

CC1(C)N=C1c1ccccc1
inactive: [18] 98 % of control | [19] 117 % of control

COC(=O)CC(=O)c1ccc(S(=O)(=O)F)cc1
inactive: [6] 104 % of control | [7] 98 % of control | [8] 97 % of control | [9] 96 % of control | [10] 101 % of control | [11] 100 % of control

CCC1(C)N=C(N)N=C(N)N1c1ccc(Cl)c(Cl)c1 (stereo not given)
inactive: dose: 37.5 mg/kg/injection, schedule: Q04DX003 (ip), vehicle: saline 111 % of control | [1] 103 % of control | dose: 75.0 mg/kg/injection, schedule: Q04DX003 (ip), vehicle: saline 111 % of control | [2] 101 % of control | dose: 150.0 mg/kg/injection, schedule: Q04DX003 (ip), vehicle: saline 105 % of control

CC1=[N+]([O-])[N+]([O-])=C(c2ccccc2)C1=O
inactive: dose: 100.0 mg/kg/injection, schedule: Q04DX002 (ip), vehicle: Klucel (hydroxypropylcellulose) (HPC) 100 % of control | dose: 200.0 mg/kg/injection, schedule: Q04DX002 (ip), vehicle: Klucel (hydroxypropylcellulose) (HPC) 95 % of control | dose: 400.0 mg/kg/injection, schedule: Q04DX002 (ip), vehicle: Klucel (hydroxypropylcellulose) (HPC) 87 % of control

O=C(CCl)Oc1ccccc1
inactive: dose: 50.0 mg/kg/injection, schedule: Q01DX009 (ip), vehicle: saline with Tween-80 94 % of control | [20] 87 % of control | [12] 101 % of control | [13] 96 % of control

O=C1C=C(Nc2cccc(O)c2)c2ccccc2C1=O
inactive: [15] 94 % of control | [16] 97 % of control | [17] 89 % of control

OC1CSC1
inactive: dose: 50.0 mg/kg/injection, schedule: Q01DX001 (ip), vehicle: saline 89 % of control | dose: 100.0 mg/kg/injection, schedule: Q01DX001 (ip), vehicle: saline 96 % of control | [20] 96 % of control | [12] 98 % of control | dose: 200.0 mg/kg/injection, schedule: Q01DX001 (ip), vehicle: saline 100 % of control | dose: 200.0 mg/kg/injection, schedule: Q01DX009 (ip), vehicle: saline with Tween-80 98 % of control | [13] 98 % of control | dose: 400.0 mg/kg/injection, schedule: Q01DX009 (ip), vehicle: saline with Tween-80 96 % of control | [14] 102 % of control

CC12C=CC3(CCC4C(C)(C)C(O)C(=O)CC4(C)C3CC1=O)C2 (stereo not given)
inactive: [6] 105 % of control | [7] 101 % of control | [8] 97 % of control | [9] 101 % of control | [10] 107 % of control | [11] 98 % of control

O=[N+]([O-])c1ccccc1N=Nc1c(O)[nH]c2c(Cl)ccc(Cl)c12
inactive: [1] 89 % of control | [2] 93 % of control

CC(=O)c1ccc(Cl)cc1
inactive: [3] 91 % of control | [4] 91 % of control | [5] 97 % of control
